Patent US20230120564A1, “PYRIDO[3,4-D]PYRIMIDINE DERIVATIVE AND THERAPEUTIC PHARMACEUTIC COMPOSITION COMPRISING SAME” (KOREA INSTITUTE OF SCIENCE AND TECHNOLOGY, priority 2020, published 2023)

Key:
Assay in all cases: full kinase panel biochemical assay
ABL2/ARG = ABL2/ARG (Homo sapiens, UniProt P42684); settings: single concentration of 1 μM; read-out: percent inhibition of ABL2/ARG
Protocol: (§1) In order to measure the protein kinase inhibitory activity (% inhibition) of the compound of the present invention, biochemical assay was performed in the full kinase panel. As a test compound, Compound No. 4 was used. The percent inhibition of each kinase when treated with the test compound at a single concentration of 1 μM was measured, and the residual enzyme activity values (%) of the kinases were calculated. Kinases whose calculated residual enzyme activity values (%) was 30% or less (i.e., kinases inhibited by 70% or more) are as follows: ABL1, ABL2/ARG, ACK1, ARAF, BLK, BMX/ETK, BRAF, BRK, BTK, c-Kit, c-Src, CSK, DDR1, DDR2, EPHA1, EPHA2, EPHA3, EPHA4, EPHA5, EPHA6, EPHA7, EPHA8, EPHB1, EPHB2, EPHB3, EPHB4, ERBB2/HER2, ERBB4/HER4, FGFR1, FGFR2, FGFR3, FGR, FLT1/VEGFR1, FLT4/VEGFR3, FMS, FRK/PTK5, FYN, GCK/MAP4K2, HCK, HGK/MAP4K4, JAK1, JAK2, KDR/VEGFR2, KHS/MAP4K5, LCK, LYN, LYN B, MEKK1, MLK4, MYLK3, NEK5, P38a/MAPK14, P38b/MAPK11, PDGFRa, PDGFRb, PEAK1, RET, RIPK2, RIPK4, SIK2, SRPK1, TAOK3/JIK, TLK1, TNK1, TXK, TYK2, YES/YES1, YSK4/MAP3K19, and ZAK/MLTK.

ACK1 = ACK1 (Homo sapiens, UniProt Q07912); settings: single concentration of 1 μM; read-out: percent inhibition of ACK1
Protocol: as §1

BTK = BTK (Homo sapiens, UniProt Q06187); settings: single concentration of 1 μM; read-out: percent inhibition of BTK
Protocol: as §1

CSK = CSK (Homo sapiens, UniProt P41240); settings: single concentration of 1 μM; read-out: percent inhibition of CSK
Protocol: as §1

DDR1 = DDR1 (Homo sapiens, UniProt Q08345); settings: single concentration of 1 μM; read-out: percent inhibition of DDR1
Protocol: as §1

EPHA2 = EPHA2 (Homo sapiens, UniProt P29317); settings: single concentration of 1 μM; read-out: percent inhibition of EPHA2
Protocol: as §1

EPHA3 = EPHA3 (Homo sapiens, UniProt P29320); settings: single concentration of 1 μM; read-out: percent inhibition of EPHA3
Protocol: as §1

EPHA6 = EPHA6 (Homo sapiens, UniProt Q9UF33); settings: single concentration of 1 μM; read-out: percent inhibition of EPHA6
Protocol: as §1

EPHB2 = EPHB2 (Homo sapiens, UniProt P29323); settings: single concentration of 1 μM; read-out: percent inhibition of EPHB2
Protocol: as §1

FGFR2 = FGFR2 (Homo sapiens, UniProt P21802); settings: single concentration of 1 μM; read-out: percent inhibition of FGFR2
Protocol: as §1

FGFR3 = FGFR3 (Homo sapiens, UniProt P22607); settings: single concentration of 1 μM; read-out: percent inhibition of FGFR3
Protocol: as §1

FGR = FGR (Homo sapiens, UniProt P09769); settings: single concentration of 1 μM; read-out: percent inhibition of FGR
Protocol: as §1

FLT4/VEGFR3 = FLT4/VEGFR3 (Homo sapiens, UniProt P35916); settings: single concentration of 1 μM; read-out: percent inhibition of FLT4/VEGFR3
Protocol: as §1

FMS = FMS (Homo sapiens, UniProt P07333); settings: single concentration of 1 μM; read-out: percent inhibition of FMS
Protocol: as §1

JAK1 = JAK1 (Homo sapiens, UniProt P23458); settings: single concentration of 1 μM; read-out: percent inhibition of JAK1
Protocol: as §1

LCK = LCK (Homo sapiens, UniProt P06239); settings: single concentration of 1 μM; read-out: percent inhibition of LCK
Protocol: as §1

NEK5 = NEK5 (Homo sapiens, UniProt Q6P3R8); settings: single concentration of 1 μM; read-out: percent inhibition of NEK5
Protocol: as §1

P38b/MAPK11 = P38b/MAPK11 (Homo sapiens, UniProt Q15759); settings: single concentration of 1 μM; read-out: percent inhibition of P38b/MAPK11
Protocol: as §1

RET = RET (Homo sapiens, UniProt P07949); settings: single concentration of 1 μM; read-out: percent inhibition of RET
Protocol: as §1

RIPK2 = RIPK2 (Homo sapiens, UniProt O43353); settings: single concentration of 1 μM; read-out: percent inhibition of RIPK2
Protocol: as §1

TLK1 = TLK1 (Homo sapiens, UniProt Q9UKI8); settings: single concentration of 1 μM; read-out: percent inhibition of TLK1
Protocol: as §1

TNK1 = TNK1 (Homo sapiens, UniProt Q13470); settings: single concentration of 1 μM; read-out: percent inhibition of TNK1
Protocol: as §1

TYK2 = TYK2 (Homo sapiens, UniProt P29597); settings: single concentration of 1 μM; read-out: percent inhibition of TYK2
Protocol: as §1

YSK4/MAP3K19 = YSK4/MAP3K19 (Homo sapiens, UniProt Q56UN5); settings: single concentration of 1 μM; read-out: percent inhibition of YSK4/MAP3K19
Protocol: as §1

Sequence of EPHB2 (P29323 19-1055): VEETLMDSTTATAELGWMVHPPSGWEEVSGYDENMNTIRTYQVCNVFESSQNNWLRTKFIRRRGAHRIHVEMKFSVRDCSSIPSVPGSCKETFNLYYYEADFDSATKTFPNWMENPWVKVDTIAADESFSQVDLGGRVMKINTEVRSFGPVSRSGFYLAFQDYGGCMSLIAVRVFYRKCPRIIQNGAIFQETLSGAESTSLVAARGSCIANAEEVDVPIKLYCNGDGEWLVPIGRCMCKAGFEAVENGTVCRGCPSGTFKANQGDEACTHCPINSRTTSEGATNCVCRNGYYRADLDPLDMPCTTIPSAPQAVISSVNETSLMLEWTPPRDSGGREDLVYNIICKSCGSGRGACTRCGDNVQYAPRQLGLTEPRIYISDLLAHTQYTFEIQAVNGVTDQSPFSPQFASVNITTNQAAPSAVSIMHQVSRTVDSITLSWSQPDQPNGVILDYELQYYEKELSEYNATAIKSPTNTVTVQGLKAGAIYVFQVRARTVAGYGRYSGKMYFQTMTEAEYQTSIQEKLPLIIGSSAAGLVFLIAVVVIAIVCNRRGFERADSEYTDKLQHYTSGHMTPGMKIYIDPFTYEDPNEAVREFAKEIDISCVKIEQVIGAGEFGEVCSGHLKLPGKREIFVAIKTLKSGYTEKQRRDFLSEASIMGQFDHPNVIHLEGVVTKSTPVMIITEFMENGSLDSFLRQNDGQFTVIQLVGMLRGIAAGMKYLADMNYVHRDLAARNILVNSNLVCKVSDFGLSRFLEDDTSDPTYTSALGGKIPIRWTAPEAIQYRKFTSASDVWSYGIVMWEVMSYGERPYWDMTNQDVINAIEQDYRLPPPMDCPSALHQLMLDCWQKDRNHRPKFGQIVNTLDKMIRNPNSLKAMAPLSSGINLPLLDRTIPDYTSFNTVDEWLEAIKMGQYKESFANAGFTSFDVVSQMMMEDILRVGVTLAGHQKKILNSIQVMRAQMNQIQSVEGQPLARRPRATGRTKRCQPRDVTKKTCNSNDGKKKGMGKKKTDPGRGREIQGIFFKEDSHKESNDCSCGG
Sequence of LCK (P06239 whole entry): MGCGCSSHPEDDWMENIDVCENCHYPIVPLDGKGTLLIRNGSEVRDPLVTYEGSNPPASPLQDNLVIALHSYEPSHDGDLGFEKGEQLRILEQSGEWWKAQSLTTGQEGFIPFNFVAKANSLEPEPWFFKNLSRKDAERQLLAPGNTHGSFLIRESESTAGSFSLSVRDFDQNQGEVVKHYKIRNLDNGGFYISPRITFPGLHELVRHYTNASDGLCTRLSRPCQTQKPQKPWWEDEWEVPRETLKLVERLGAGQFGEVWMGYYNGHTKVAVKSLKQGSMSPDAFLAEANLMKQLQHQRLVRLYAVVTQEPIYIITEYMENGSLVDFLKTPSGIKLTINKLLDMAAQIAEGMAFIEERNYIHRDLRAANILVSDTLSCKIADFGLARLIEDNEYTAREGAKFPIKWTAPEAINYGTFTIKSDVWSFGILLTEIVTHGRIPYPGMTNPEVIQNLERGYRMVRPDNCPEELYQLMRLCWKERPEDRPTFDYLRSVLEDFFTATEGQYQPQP
Sequence of RET (P07949 29-1114): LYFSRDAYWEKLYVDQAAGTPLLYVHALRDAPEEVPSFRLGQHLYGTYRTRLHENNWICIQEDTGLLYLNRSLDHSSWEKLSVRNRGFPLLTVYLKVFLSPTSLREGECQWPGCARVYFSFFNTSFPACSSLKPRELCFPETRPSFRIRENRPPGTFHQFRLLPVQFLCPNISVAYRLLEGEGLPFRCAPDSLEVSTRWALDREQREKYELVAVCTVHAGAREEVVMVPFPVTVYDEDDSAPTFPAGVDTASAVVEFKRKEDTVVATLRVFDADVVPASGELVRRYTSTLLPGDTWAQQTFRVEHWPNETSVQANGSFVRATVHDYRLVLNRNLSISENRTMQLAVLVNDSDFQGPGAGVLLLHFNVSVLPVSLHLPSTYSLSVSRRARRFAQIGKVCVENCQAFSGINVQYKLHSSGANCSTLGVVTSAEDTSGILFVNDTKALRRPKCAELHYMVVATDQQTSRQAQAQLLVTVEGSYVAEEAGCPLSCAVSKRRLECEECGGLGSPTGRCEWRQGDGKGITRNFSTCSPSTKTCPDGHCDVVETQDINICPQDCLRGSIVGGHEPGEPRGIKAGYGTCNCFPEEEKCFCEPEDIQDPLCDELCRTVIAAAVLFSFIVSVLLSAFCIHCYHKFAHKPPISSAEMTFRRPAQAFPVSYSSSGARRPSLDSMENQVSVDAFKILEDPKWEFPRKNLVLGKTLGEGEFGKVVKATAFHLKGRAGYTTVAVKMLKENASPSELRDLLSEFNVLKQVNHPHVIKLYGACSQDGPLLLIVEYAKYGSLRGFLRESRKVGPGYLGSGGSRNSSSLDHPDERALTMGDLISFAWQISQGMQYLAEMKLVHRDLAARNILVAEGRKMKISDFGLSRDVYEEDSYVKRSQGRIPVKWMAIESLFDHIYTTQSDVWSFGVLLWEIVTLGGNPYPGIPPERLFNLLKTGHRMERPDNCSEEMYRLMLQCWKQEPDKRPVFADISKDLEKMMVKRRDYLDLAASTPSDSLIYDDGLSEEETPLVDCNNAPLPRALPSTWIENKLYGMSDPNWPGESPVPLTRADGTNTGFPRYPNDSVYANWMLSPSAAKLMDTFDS
Sequence of EPHA6 (Q9UF33 23-1036): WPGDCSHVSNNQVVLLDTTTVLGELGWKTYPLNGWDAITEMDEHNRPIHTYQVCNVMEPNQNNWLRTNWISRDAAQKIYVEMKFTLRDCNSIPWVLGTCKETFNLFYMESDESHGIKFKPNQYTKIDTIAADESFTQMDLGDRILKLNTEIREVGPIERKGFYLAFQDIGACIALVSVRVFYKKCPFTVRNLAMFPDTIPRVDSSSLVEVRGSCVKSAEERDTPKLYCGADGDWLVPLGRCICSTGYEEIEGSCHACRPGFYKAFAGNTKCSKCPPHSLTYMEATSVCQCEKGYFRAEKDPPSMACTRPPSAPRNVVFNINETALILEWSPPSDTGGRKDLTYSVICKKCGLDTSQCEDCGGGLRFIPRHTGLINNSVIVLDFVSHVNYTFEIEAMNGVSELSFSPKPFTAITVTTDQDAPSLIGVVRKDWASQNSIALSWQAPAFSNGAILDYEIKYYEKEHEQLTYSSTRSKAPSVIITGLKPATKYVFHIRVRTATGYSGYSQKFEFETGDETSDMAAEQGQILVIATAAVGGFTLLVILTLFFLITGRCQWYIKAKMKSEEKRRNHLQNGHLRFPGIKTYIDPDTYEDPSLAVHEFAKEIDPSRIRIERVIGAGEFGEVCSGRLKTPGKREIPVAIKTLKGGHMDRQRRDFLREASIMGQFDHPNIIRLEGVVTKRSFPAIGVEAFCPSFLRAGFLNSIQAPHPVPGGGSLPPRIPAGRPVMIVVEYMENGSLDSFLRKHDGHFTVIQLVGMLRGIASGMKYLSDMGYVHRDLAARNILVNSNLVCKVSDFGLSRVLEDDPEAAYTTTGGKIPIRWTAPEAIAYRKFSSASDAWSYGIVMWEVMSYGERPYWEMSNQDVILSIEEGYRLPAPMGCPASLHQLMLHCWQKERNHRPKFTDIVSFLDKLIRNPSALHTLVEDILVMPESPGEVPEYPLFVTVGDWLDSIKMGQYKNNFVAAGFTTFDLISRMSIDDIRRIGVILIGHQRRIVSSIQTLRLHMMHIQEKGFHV
Sequence of FMS (P07333 20-972): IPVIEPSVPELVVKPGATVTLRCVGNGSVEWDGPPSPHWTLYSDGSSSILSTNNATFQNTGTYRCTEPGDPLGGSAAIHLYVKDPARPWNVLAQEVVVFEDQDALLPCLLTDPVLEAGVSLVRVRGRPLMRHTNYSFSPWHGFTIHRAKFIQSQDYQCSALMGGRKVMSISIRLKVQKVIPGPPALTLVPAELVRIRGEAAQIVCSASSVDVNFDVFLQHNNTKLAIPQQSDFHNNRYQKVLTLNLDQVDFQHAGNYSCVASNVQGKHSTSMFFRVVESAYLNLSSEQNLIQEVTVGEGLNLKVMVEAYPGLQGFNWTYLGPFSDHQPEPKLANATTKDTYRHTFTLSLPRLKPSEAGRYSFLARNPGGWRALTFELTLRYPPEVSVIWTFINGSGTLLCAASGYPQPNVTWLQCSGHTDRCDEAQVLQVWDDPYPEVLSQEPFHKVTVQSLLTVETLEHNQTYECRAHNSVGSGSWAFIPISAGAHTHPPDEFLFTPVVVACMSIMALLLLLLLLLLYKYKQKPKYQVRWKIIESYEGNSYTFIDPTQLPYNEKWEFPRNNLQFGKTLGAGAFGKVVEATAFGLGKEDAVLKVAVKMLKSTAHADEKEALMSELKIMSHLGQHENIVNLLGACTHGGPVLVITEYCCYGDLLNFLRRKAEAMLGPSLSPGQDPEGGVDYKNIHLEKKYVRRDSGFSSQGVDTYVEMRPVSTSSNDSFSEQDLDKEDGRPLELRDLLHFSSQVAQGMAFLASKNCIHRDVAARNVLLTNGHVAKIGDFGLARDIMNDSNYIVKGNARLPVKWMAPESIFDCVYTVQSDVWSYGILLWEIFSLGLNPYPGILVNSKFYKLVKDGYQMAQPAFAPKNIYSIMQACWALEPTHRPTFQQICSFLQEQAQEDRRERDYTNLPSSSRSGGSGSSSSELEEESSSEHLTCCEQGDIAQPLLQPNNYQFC
Sequence of P38b/MAPK11 (Q15759 whole entry): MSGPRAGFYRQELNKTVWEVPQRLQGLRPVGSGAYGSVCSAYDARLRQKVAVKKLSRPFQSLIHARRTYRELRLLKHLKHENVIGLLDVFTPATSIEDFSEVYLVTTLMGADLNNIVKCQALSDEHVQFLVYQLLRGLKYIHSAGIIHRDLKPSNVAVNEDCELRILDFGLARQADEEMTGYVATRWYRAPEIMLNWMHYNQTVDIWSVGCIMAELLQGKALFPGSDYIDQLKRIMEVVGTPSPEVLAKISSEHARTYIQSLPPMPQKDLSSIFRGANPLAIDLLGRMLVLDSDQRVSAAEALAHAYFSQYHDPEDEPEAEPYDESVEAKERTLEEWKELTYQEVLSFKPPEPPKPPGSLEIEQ

inhibition at 1 µM (ABL2/ARG): ≥ 70%
inhibition at 1 µM (ACK1): ≥ 70%
inhibition at 1 µM (BTK): ≥ 70%
inhibition at 1 µM (CSK): ≥ 70%
inhibition at 1 µM (DDR1): ≥ 70%
inhibition at 1 µM (EPHA2): ≥ 70%
inhibition at 1 µM (EPHA3): ≥ 70%
inhibition at 1 µM (EPHA6): ≥ 70%
inhibition at 1 µM (EPHB2): ≥ 70%
inhibition at 1 µM (FGFR2): ≥ 70%
inhibition at 1 µM (FGFR3): ≥ 70%
inhibition at 1 µM (FGR): ≥ 70%
inhibition at 1 µM (FLT4/VEGFR3): ≥ 70%
inhibition at 1 µM (FMS): ≥ 70%
inhibition at 1 µM (JAK1): ≥ 70%
inhibition at 1 µM (LCK): ≥ 70%
inhibition at 1 µM (NEK5): ≥ 70%
inhibition at 1 µM (P38b/MAPK11): ≥ 70%
inhibition at 1 µM (RET): ≥ 70%
inhibition at 1 µM (RIPK2): ≥ 70%
inhibition at 1 µM (TLK1): ≥ 70%
inhibition at 1 µM (TNK1): ≥ 70%
inhibition at 1 µM (TYK2): ≥ 70%
inhibition at 1 µM (YSK4/MAP3K19): ≥ 70%
Compound: Cc1ccc(Nc2ncc3cc(-c4cc(NC(=O)c5cccc(C(F)(F)F)c5)ccc4C)ncc3n2)cn1 [Compound No. 4, N-(4-methyl-3-(2-((6-methylpyridin-3-yl)amino)pyrido[3,4-d]pyrimidin-6-yl)phenyl)-3-(trifluoromethyl)benzamide]
